Laboratory results: patent US10758534B2 (Vertex Pharmaceuticals Incorporated, priority 2014, dated 2020)

Biological target: T1, F508del (Homo sapiens, UniProt P13569, DEL508-508)
T1 construct: expressed in transfected cells
Test: Protocol 1: membrane potential optical assay (FLIPR III, voltage sensing dye), identification of potentiator compounds
Type: cell-based
Details: Table 3, compounds of Table 1
Outline: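 Membrane potential in forskolin-activated, temperature-rescued F508del NIH 3T3 cells is followed with a voltage-sensing dye on FLIPR III. A chloride ion gradient created at the single addition step provides the driving force, after prior compound treatment.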

T1 sequence (P13569 with tags, fused parts or gaps DEL508-508): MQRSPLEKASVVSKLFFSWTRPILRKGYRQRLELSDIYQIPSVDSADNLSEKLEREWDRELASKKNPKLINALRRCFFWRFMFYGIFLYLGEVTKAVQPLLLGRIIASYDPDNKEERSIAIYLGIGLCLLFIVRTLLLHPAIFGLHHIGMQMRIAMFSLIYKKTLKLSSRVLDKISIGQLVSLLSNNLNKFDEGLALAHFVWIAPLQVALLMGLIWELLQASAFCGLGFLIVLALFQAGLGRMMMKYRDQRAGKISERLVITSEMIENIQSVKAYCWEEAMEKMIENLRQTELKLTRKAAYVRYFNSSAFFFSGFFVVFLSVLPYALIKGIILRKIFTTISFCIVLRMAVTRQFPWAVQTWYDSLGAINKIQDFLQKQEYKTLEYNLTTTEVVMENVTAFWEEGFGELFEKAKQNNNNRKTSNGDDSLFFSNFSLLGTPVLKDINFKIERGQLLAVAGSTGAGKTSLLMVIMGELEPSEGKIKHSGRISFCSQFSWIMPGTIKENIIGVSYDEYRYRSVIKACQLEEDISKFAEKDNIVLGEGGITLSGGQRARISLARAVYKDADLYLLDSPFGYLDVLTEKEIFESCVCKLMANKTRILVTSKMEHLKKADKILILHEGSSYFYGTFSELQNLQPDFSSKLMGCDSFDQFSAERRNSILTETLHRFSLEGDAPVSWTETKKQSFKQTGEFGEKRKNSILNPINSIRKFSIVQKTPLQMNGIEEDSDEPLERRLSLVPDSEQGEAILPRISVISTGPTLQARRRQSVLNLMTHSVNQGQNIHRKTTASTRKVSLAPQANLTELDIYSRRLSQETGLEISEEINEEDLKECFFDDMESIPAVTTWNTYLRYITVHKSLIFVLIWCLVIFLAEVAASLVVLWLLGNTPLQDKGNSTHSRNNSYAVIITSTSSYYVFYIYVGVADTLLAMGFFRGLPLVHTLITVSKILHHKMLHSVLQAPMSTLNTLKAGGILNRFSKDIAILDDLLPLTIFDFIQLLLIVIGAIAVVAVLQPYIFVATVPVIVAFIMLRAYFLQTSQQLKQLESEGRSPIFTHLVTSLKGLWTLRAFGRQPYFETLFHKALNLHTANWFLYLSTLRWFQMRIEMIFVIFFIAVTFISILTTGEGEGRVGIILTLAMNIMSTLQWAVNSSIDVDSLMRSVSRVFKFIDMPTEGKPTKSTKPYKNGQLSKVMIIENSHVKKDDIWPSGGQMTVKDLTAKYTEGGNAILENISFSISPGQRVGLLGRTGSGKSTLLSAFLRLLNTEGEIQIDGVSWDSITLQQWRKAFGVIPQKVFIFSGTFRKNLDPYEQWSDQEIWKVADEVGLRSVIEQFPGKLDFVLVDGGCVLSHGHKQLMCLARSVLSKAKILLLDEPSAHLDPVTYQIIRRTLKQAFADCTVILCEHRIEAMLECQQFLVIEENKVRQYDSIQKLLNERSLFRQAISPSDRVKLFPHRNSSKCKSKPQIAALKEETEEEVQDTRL

| SMILES | EC30 |
| --- | --- |
| CC(C)COc1cc(F)cc(-c2ccc(C(=O)NS(=O)(=O)c3cccc(N)n3)c(N3CCCC34CCCC4)n2)c1 [Compound 926, N-[(6-amino-2-pyridyl)sulfonyl]-2-(9-azaspiro[4.4]nonan-9-yl)-6-(3-fluoro-5-isobutoxy-phenyl)pyridine-3-carboxamide] | +++ (“+++” means <3 uM) |
| CC(C)COc1cc(F)cc(-c2ccc(C(=O)NS(=O)(=O)c3ccn[nH]3)c(N3CCCC(F)C3)n2)c1 (centres unmarked) [Compound 878, 6-(3-fluoro-5-isobutoxy-phenyl)-2-(3-fluoro-1-piperidyl)-N-(1H-pyrazol-5-ylsulfonyl)pyridine-3-carboxamide] | ++ (“++” means between 3 uM and 10 uM) |
| CC(C)COc1cc(-c2ccc(C(=O)NS(=O)(=O)c3cccc(N)n3)c(N3[C@H](C)CC[C@@H]3C)n2)ccc1Cl [Compound 1197, N-[(6-amino-2-pyridyl)sulfonyl]-6-(4-chloro-3-isobutoxy-phenyl)-2-[(2S,5R)-2,5-dimethylpyrrolidin-1-yl]pyridine-3-carboxamide] | +++ (“+++” means <3 uM) |
| CC(C)COc1cc(F)cc(-c2ccc(C(=O)NS(=O)(=O)c3cccc(N)n3)c(OCC3CCCO3)n2)c1 (centres unmarked) [Compound 1661, N-[(6-amino-2-pyridyl)sulfonyl]-6-(3-fluoro-5-isobutoxy-phenyl)-2-(tetrahydrofuran-2-ylmethoxy)pyridine-3-carboxamide] | +++ (“+++” means <3 uM) |
| CCOc1cccc2c1CN(Cc1ccc(F)cc1)C2(C)C(=O)NS(=O)(=O)c1cccc(F)n1 (centres unmarked) [Compound 1583, 4-ethoxy-2-[(4-fluorophenyl)methyl]-N-[(6-fluoro-2-pyridyl)sulfonyl]-1-methyl-isoindoline-1-carboxamide] | ++ (“++” means between 3 uM and 10 uM) |
| CC(C)COc1cc(F)cc(-c2ccc(C(=O)NS(=O)(=O)c3cccc(N)n3)c(N(C)C(C)c3cccc(Cl)c3)n2)c1 (centres unmarked) [Compound 1205, N-[(6-amino-2-pyridyl)sulfonyl]-2-[1-(3-chlorophenyl)ethyl-methyl-amino]-6-(3-fluoro-5-isobutoxy-phenyl)pyridine-3-carboxamide] | +++ (“+++” means <3 uM) |
| CC(C)Cn1cc(-c2ccc(C(=O)NS(=O)(=O)c3nccnc3N)c(N3CCC(C)CC3)n2)cn1 [Compound 1288, N-(3-aminopyrazin-2-yl)sulfonyl-6-(1-isobutylpyrazol-4-yl)-2-(4-methyl-1-piperidyl)pyridine-3-carboxamide] | ++ (“++” means between 3 uM and 10 uM) |
| CC(C)COc1ccc(-c2ccc(C(=O)NS(=O)(=O)c3ccc[nH]c3=O)c(N3CCC(C)CC3)n2)cc1 [Compound 1017, 6-(4-isobutoxyphenyl)-2-(4-methyl-1-piperidyl)-N-[(2-oxo-1H-pyridin-3-yl)sulfonyl]pyridine-3-carboxamide] | ++ (“++” means between 3 uM and 10 uM) |
| CC(C)COc1cc(F)cc(-c2ccc(C(=O)NS(=O)(=O)c3ccccn3)c(N3CC(C)CC3(C)C)n2)c1 (centres unmarked) [Compound 1063, 6-(3-fluoro-5-isobutoxy-phenyl)-N-(2-pyridylsulfonyl)-2-(2,2,4-trimethylpyrrolidin-1-yl)pyridine-3-carboxamide] | +++ (“+++” means <3 uM) |
| CC(C)COc1cc(F)cc(-c2ccc(C(=O)NS(=O)(=O)c3cccc(N)n3)c(N3CCCC34CC4)n2)c1 [Compound 1333, N-[(6-amino-2-pyridyl)sulfonyl]-2-(7-azaspiro[2.4]heptan-7-yl)-6-(3-fluoro-5-isobutoxy-phenyl)pyridine-3-carboxamide] | +++ (“+++” means <3 uM) |
| CC(C)COc1cc(-c2ccc(C(=O)NS(=O)(=O)c3ccc[nH]c3=O)c(N3[C@H](C)CC[C@@H]3C)n2)ccc1Cl [Compound 902, 6-(4-chloro-3-isobutoxy-phenyl)-2-[(2S,5R)-2,5-dimethylpyrrolidin-1-yl]-N-[(2-oxo-1H-pyridin-3-yl)sulfonyl]pyridine-3-carboxamide] | +++ (“+++” means <3 uM) |
| [2H]C1([2H])[C@@H](C)CC(C)(C)N1c1nc(-c2cc(F)cc(OCC(C)C)c2)ccc1C(=O)NS(=O)(=O)c1cccc(N)n1 [Compound 1400, N-[(6-amino-2-pyridyl)sulfonyl]-2-[(3S)-2,2-dideuterio-3,5,5-trimethyl-pyrrolidin-1-yl]-6-(3-fluoro-5-isobutoxy-phenyl)pyridine-3-carboxamide] | +++ (“+++” means <3 uM) |
| CC(C)COc1cc(F)cc(-c2ccc(C(=O)NS(=O)(=O)c3ccn[nH]3)c(N3CCC(OCC4CC4)CC3)n2)c1 [Compound 1088, 2-[4-(cyclopropylmethoxy)-1-piperidyl]-6-(3-fluoro-5-isobutoxy-phenyl)-N-(1H-pyrazol-5-ylsulfonyl)pyridine-3-carboxamide] | +++ (“+++” means <3 uM) |
| CC(C)COc1cc(F)cc(-c2ccc(C(=O)NS(=O)(=O)c3cccc(N)n3)c(N3CCC[C@H]3C(C)(C)C)n2)c1 [Compound 1097, N-[(6-amino-2-pyridyl)sulfonyl]-2-[(2S)-2-tert-butylpyrrolidin-1-yl]-6-(3-fluoro-5-isobutoxy-phenyl)pyridine-3-carboxamide] | +++ (“+++” means <3 uM) |
| CC(C)COc1cc(F)cc(-c2ccc(C(=O)NS(=O)(=O)c3ccn[nH]3)c(N3CCC(F)(F)CC3)n2)c1 [Compound 1006, 2-(4,4-difluoro-1-piperidyl)-6-(3-fluoro-5-isobutoxy-phenyl)-N-(1H-pyrazol-5-ylsulfonyl)pyridine-3-carboxamide] | +++ (“+++” means <3 uM) |
| CC(C)COc1cc(F)cc(-c2ccc(C(=O)NS(=O)(=O)c3cccc(N)n3)c(N3CCCCC(C)(C)C3)n2)c1 [Compound 1901, N-[(6-amino-2-pyridyl)sulfonyl]-2-(3,3-dimethylazepan-1-yl)-6-(3-fluoro-5-isobutoxy-phenyl)pyridine-3-carboxamide] | +++ (“+++” means <3 uM) |

Now from value to molecule:

| EC30 | SMILES |
| --- | --- |
| +++ (“+++” means <3 uM) | Cc1cc(C)c(Oc2nc(-c3cc(F)ccc3O)ccc2C(=O)NS(=O)(=O)c2cccc(N)n2)c(C)c1 [Compound 1049] |
| +++ (“+++” means <3 uM) | CC(C)Oc1ccc(-c2ccc(C(=O)NS(=O)(=O)c3cccnc3N)c(N3C[C@@H](C)CC3(C)C)n2)cn1 [Compound 1660, N-[(2-amino-3-pyridyl)sulfonyl]-6-(6-isopropoxy-3-pyridyl)-2-[(4S)-2,2,4-trimethylpyrrolidin-1-yl]pyridine-3-carboxamide] |
| +++ (“+++” means <3 uM) | COc1ccccc1-c1ccc(C(=O)NS(=O)(=O)c2cccc(N)n2)c(Oc2c(C)cc(C)cc2C)n1 [Compound 1173, N-[(6-amino-2-pyridyl)sulfonyl]-6-(2-methoxyphenyl)-2-(2,4,6-trimethylphenoxy)pyridine-3-carboxamide] |
| +++ (“+++” means <3 uM) | CC1CN(c2ncccc2C(=O)NS(=O)(=O)c2cccc(Oc3cccc4c3CCCC4)n2)C(C)(C)C1 (centres unmarked) [Compound 1955, N-[(6-tetralin-5-yloxy-2-pyridyl)sulfonyl]-2-(2,2,4-trimethylpyrrolidin-1-yl)pyridine-3-carboxamide] |
| +++ (“+++” means <3 uM) | CC(C)CCOc1cccc(-c2cnc(N3CC(C)CC3(C)C)c(C(=O)NS(=O)(=O)c3cccc(N)n3)c2)c1 (centres unmarked) [Compound 1894, N-[(6-amino-2-pyridyl)sulfonyl]-5-(3-isopentyloxyphenyl)-2-(2,2,4-trimethylpyrrolidin-1-yl)pyridine-3-carboxamide] |
| +++ (“+++” means <3 uM) | CC1CN(c2ncccc2C(=O)NS(=O)(=O)c2cccc(NC(C)c3ccccc3)n2)C(C)(C)C1 (centres unmarked) [Compound 1905, N—[[6-(1-phenylethylamino)-2-pyridyl]sulfonyl]-2-(2,2,4-trimethylpyrrolidin-1-yl)pyridine-3-carboxamide] |
| +++ (“+++” means <3 uM) | Cc1ccc(-c2nc3c(cc2C(=O)NS(=O)(=O)c2cccc(N)c2)CCCC3(C)C)cc1 [Compound 1231, (3-aminophenyl)sulfonyl-[8,8-dimethyl-2-(p-tolyl)-6,7-dihydro-5H-quinoline-3-carbonyl]azanide] |
| ++ (“++” means between 3 uM and 10 uM) | CCOC1CCCN(c2nc(-c3ccc(OC(C)C)nc3)ccc2C(=O)NS(=O)(=O)c2cccc(N)n2)C1 (centres unmarked) [Compound 960, N-[(6-amino-2-pyridyl)sulfonyl]-2-(3-ethoxy-1-piperidyl)-6-(6-isopropoxy-3-pyridyl)pyridine-3-carboxamide] |
| ++ (“++” means between 3 uM and 10 uM) | CCOC1CCN(c2nc(-c3ccc(OC(C)C)nc3)ccc2C(=O)NS(=O)(=O)c2cccc(N)n2)CC1 [Compound 1214, N-[(6-amino-2-pyridyl)sulfonyl]-2-(4-ethoxy-1-piperidyl)-6-(6-isopropoxy-3-pyridyl)pyridine-3-carboxamide] |
| + (“+” means greater than 10 uM) | Cc1cc(C)c(Oc2nc(-c3ccc(O)cc3C)ccc2C(=O)NS(=O)(=O)c2cccc(N)n2)c(C)c1 [Compound 1204, N-[(6-amino-2-pyridyl)sulfonyl]-6-(4-hydroxy-2-methyl-phenyl)-2-(2,4,6-trimethylphenoxy)pyridine-3-carboxamide] |
| +++ (“+++” means <3 uM) | Cc1ccccc1Oc1nc(C(C)(C)C)ccc1C(=O)NS(=O)(=O)c1cccc(N)n1 [Compound 1318, N-[(6-amino-2-pyridyl)sulfonyl]-6-tert-butyl-2-(2-methylphenoxy)pyridine-3-carboxamide] |
| ++ (“++” means between 3 uM and 10 uM) | CCn1cc(-c2ccc(C(=O)NS(=O)(=O)c3cccc(N)n3)c(Oc3c(C)cc(C)cc3C)n2)cn1 [Compound 1312, N-[(6-amino-2-pyridyl)sulfonyl]-6-(1-ethylpyrazol-4-yl)-2-(2,4,6-trimethylphenoxy)pyridine-3-carboxamide] |
| ++ (“++” means between 3 uM and 10 uM) | C[C@@H]1CN(c2nc(C3CCCOC3)ccc2C(=O)NS(=O)(=O)c2cccc(N)n2)C(C)(C)C1 (stereo partly drawn) [Compound 1632, N-[(6-amino-2-pyridyl)sulfonyl]-6-tetrahydropyran-3-yl-2-[(4S)-2,2,4-trimethylpyrrolidin-1-yl]pyridine-3-carboxamide] |
